According to patent US5716528A, “Peroxide water treatment process” (Domtar Inc., priority 1995, dated 1998):

What was measured:
[1] = Field trials: peroxide oxidation of wood preserving wastewater, then carbon adsorption
Method: In field trials 900 liter samples of wood preserving wastewater of known Chemical Oxygen Demand (COD) was treated as follows:
This antifoam agent was added because foaming was expected in view of the large volume of waste water being treated.
An amount of Fe^2+ (as 0.1M or 1M ferrous sulphate heptahydrate) equivalent to 5-7% of the total H2 O2 by weight was added with fast agitation. The pH was kept at 3-3.8 at a temperature of 40°±5° C.
The reaction was judged complete when the colour of the reaction mixture turned light yellow similar to that of a ferric ions solution (3-3.5 hrs.)
The catalyst was separated by co-precipitation with alum or poly electrolytes.

[2] = Effect of peroxide/penta weight ratios on the oxidation of pentachlorophenol; settings: Fe2+/H2O2 3%, pH 3.5
Method: a) Effect of peroxide/penta weight ratios on the oxidation of pentachlorophenol
Appropriate amounts of technical grade pentachlorophenol were dissolved in deionized water (the pH of which was kept at 8 to 9 with 5% NaOH solution) to yield solutions containing 19.0, 38.1, 66.6 and76.2 ppm pentachlorophenol.
100 ml of each of the above solutions was placed in each of four 100 ml beakers.
157.5 mg H2 O2 (≈0.42 ml of 35% solution) were added to each beaker to give peroxide/penta weight ratios of 82.7, 41.3, 27.6 and 20.7, respectively.
4.74 mg of Fe^2+ (≈0.85 ml of 0.1 molar solution of ferrous sulphate heptahydrate) were then added to give a constant Fe^2+ /H2 O2 weight ratio of 3% in each beaker.

Compound: Oc1c(Cl)c(Cl)c(Cl)c(Cl)c1Cl [Pentachlorophenol, pentachlorophenol]
- removed after oxidation followed by carbon adsorption ([1]; field trial): > 99.3%
- removed after oxidation only ([1]; field trial): 92.60-98.75%
- destruction levels of contaminants by oxidation ([1]; summary of process): ~99.9%
- PCP destruction ([2]; PCP 19.0 ppm, H2O2/PCP ratio 82.7): 96.2%
- PCP destruction ([2]; PCP 38.1 ppm, H2O2/PCP ratio 41.3): 98.2%
- PCP destruction ([2]; PCP 66.6 ppm, H2O2/PCP ratio 27.6): 98.9%
- PCP destruction ([2]; PCP 76.2 ppm, H2O2/PCP ratio 20.7): 95.9%
